Reference: patent US12084451B2, “Compositions and methods for reducing tactile dysfunction, anxiety, and social impairment” (President and Fellows of Harvard College, priority 2018, dated 2024)

Molecular target: hGABAA α1β3γ2 (Homo sapiens, UniProt P14867+P18507+P28472)
Assay: hGABAA α1β3γ2 IonFlux HT Agonist Assay
Assay type: cell-based
Conditions: for Normalized Percentage Activation Mean: normalized to EC100 GABA (30 μM)
Protocol: Ligand-gated ion channel targets were hGABAA α2β3γ2 and hGABAA α1β3γ2. Electrophysiological assays conducted to profile two compounds for agonist activities on hGABAA α2β3γ2 and seven compounds for agonist activities on hGABAA α1β3γ2 using the IonFlux HT electrophysiological platform.
The parameters measured are described in the Data Analysis section. […] Note: The test compounds was applied over two (2) ‘experimental patterns’ in increasing concentrations.
The supplied compound was prepared in DMSO to concentrations that were 300× the final assay concentrations. Aliquots were taken out and diluted 300× into external buffer to give the final assay concentration. At wells included a final DMSO concentration of 0.33% including all control wets.
All recordings were obtained from a holding potential of −60 mV. The compound addition sequence that was used for all additions was the same for all assays. […] Each test concentration of compound was applied for 2 seconds followed by 60 seconds wash. The process was repeated with the next ascending concentration of test compound. The test compounds were applied over two (2) ‘experimental patterns’ in increasing concentrations (FIG. 11).
AM data were first exported to an Excel compatible data file and then analyzed using Graph Pad Prism software.

Sequence of hGABAA α1β3γ2 (P14867 28-456): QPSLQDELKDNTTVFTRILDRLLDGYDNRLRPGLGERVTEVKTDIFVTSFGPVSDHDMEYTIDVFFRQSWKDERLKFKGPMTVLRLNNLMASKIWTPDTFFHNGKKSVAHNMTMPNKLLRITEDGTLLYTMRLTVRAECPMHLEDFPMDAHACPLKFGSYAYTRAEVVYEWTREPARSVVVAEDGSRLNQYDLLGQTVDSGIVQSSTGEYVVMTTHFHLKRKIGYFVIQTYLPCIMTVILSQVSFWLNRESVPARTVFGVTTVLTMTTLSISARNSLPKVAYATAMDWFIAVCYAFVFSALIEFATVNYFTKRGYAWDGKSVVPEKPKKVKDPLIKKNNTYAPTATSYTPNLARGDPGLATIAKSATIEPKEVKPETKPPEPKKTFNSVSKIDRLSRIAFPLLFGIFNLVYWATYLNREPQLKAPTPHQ
Sequence of hGABAA α1β3γ2 (P28472 26-473): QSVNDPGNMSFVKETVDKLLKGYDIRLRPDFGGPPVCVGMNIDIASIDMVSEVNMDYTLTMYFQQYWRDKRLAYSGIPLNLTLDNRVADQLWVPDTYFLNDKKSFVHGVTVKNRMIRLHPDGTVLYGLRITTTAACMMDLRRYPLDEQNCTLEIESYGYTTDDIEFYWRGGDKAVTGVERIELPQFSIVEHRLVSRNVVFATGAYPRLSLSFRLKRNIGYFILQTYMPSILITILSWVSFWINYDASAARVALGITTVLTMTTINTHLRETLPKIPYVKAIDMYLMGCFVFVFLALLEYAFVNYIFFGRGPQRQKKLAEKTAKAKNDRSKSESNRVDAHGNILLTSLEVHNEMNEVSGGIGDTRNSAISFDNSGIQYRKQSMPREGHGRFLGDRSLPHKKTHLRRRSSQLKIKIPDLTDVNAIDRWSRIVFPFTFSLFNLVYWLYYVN
Sequence of hGABAA α1β3γ2 (P18507 40-475): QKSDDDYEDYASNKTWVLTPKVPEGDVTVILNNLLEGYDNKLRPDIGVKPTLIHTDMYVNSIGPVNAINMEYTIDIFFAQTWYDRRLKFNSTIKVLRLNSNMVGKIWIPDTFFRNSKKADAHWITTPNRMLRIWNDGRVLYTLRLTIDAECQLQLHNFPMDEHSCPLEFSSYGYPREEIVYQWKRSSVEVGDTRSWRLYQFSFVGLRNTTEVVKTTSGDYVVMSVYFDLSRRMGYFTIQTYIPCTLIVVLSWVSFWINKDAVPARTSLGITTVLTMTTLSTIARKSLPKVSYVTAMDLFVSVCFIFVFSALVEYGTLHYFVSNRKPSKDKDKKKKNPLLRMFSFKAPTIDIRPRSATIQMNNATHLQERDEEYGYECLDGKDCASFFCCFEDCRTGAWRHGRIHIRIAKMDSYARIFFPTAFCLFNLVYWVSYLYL

O=C(O)C1=CCNCC1 [Isoguvacine]
Normalized Percentage Activation Mean (0.3 μM): 1.61%
Normalized Percentage Activation Mean (1 μM): 2.18%
Normalized Percentage Activation Mean (3 μM): 6.83%
Normalized Percentage Activation Mean (10 μM): 30.46%
Normalized Percentage Activation Mean (30 μM): 65.63%
Normalized Percentage Activation Mean (100 μM): 84.77%
Normalized Percentage Activation Mean (300 μM): 92.72%
Normalized Percentage Activation Mean (10000 μM): 93.46%
EC50 (agonist activation of channel currents, read-out: Estimated EC50): 19.7 µM
